# Tested on: grafts derived from mouse iPS cells
# Assay: Transplantation experiment of mouse iPS cell-derived dopamine neural progenitor cells into striatum of SD rats (immunohistochemistry of grafts)
# Type: in vivo
# Settings: four weeks after transplantation
# Method: Ten-week-old Sprague-Dawley rats (SD rats, available from Shimizu Laboratory Supplies Co., Ltd.) were handled in accordance with the Guidelines for Animal Experiments of Kyoto University. Each SD rat was anesthetized, and donor cells were transplanted by stereotaxic injection into striatums on both sides. Two cell aggregates (containing 3.1×10^5 cells on average) obtained on day 9 after starting the SFEB were collected in 1 μl of PBS(-) so as to be used as the donor cells for the transplantation in each tract. To the PBS(-), Y-27632 was added at a final concentration of […]. Thereafter, intraperitoneal injection of VPA (150 mg/kg/day), ZNS sodium salt (30 mg/kg/day), E2 (80 μM/kg/day) or a saline was conducted from two days before transplanting the donor cells until a day of necropsy. For immunosuppression, cyclosporin A (CsA, manufactured by Wako Pure Chemical Industries, Ltd.) was administered to all the SD rats at a daily dose of 10 mg/kg. Four weeks after the transplantation of the donor cells, the brains of the SD rats were washed and fixed by intracardially perfusing 4% paraformaldehyde under deep anesthesia. On the day of necropsy, a blood sample was collected from each SD rat one hour after the final injection of the test compound or CsA. Such a sample was sent to SRL, Inc. (Tokyo, Japan) where the blood concentration of the administered drug (test compound) was measured.
# In an in vitro experiment, a cell aggregate treated with any of the above-described test compounds on day 14 after starting the SFEB was fixed with 4% paraformaldehyde. Thereafter, the fixed cell aggregate was frozen and sliced into thin sections each having a thickness of 10 μM by using a microtome for immunocytochemistry. On the other hand, in an in vivo experiment (transplantation experiment), the brain of a SD rat or a SCID rat was taken out after the transplantation experiment to be fixed again with 4% paraformaldehyde for 2 days. Thereafter, the fixed brain of the SD rat or SCID rat was cryopreserved in 30% sucrose for 3 days, frozen, and sliced into thin sections each having a thickness of 40 μM for immunohistochemistry. The frozen sections of the sphere (spherical cell mass) and the brain were subjected to a permeabilization and blocking treatment in PBS(-) for 1 hour at room temperature to be used as samples. The PBS(-) contained 0.3% Triton-X and 2% donkey serum. Thereafter, each of the sections was incubated overnight together with a primary antibody at 4° C. Primary antibodies used in this example are a rabbit anti-tyrosine hydroxylase antibody (dilution rate of 1:400, TH; manufactured by Millipore), a mouse anti-TH antibody (dilution rate of 1:200, manufactured by Millipore), a sheep anti-TH antibody (dilution rate of 1:400, manufactured by Millipore), a mouse anti-Tubβ3 antibody (dilution rate of 1:1000, Tuj1; manufactured by Covance Inc.), a rat anti-NURR1 antibody (dilution rate of 1:1000, KAN Research Institute, Inc., Kobe, Japan), a rabbit anti-Ki67 antibody (dilution rate of 1:1000, manufactured by Novocastra: NCL-Ki67p), a rabbit anti-caspase 3 antibody (dilution rate of 1:500, manufactured by Santa Cruz Biotechnology, Inc.), a rat anti-M2M6 antibody (dilution rate of 1:50, manufactured by Developmental Study Hybridoma Bank), a mouse anti-Nestin antibody (dilution rate of 1:50; manufactured by Millipore), a rabbit anti-Pitx3 antibody (dilution rate of 1:500; manufactured by Chemicon International Inc.), a goat […] antibody (dilution rate of 1:500, Foxa2; manufactured by Santa Cruz Biotechnology, Inc.), a mouse anti-human Nuclei antibody (dilution rate of 1:1000; manufactured by Millipore), and a mouse anti-NeuN antibody (dilution rate of 1:500, manufactured by Chemicon International Inc.). After washing with PBS (0.05% Tween-20) three times, the resultant sample was incubated with an Alexa Fluor-conjugated secondary antibody for 1 hour at room temperature. […]
compound,measurement,setting,value
"CCCC(CCC)C(=O)[O-].[Na+] [VPA, sodium 2-propylpentanoate]",volume of graft,"VPA 150 mg/kg/day i.p., control 9.76±3.19 mm^3, no significant difference",4.33±2.14 mm^3
same,ratio of NeuN+ cells to the number of all the cells in a graft,"VPA 150 mg/kg/day i.p., control 57.7±9.4%",77.9±5.1%
same,number of TH+ cells in a graft,"VPA 150 mg/kg/day i.p., control 393±311 cells",1396±864 cells
same,ratio of TH+ cells that were FOXA2+,"VPA 150 mg/kg/day or ZNS 30 mg/kg/day i.p., control 24.7±9.3%",81.8±33.6%
same,number of midbrain dopaminergic neurons (TH+ FOXA2+) in a graft,"VPA 150 mg/kg/day or ZNS 30 mg/kg/day i.p., control 97±76 cells",984±770 cells
